We go through 9 compounds from patent publication US11459324B2, “O-glycoprotein-2-acetamido-2-deoxy-3-D-glycopyranosidase inhibitors” (BIOGEN MA INC., priority 2018, dated 2022).

The IC50 is the concentration at which inhibition is half-maximal.

For this test, the target named is T1, Recombinant full length human OGA enzyme (Homo sapiens, UniProt O60502).
T1 construct: Recombinant full length human OGA enzyme was purchased from Origene; purchased Origene
T1 sequence (O60502 1-916): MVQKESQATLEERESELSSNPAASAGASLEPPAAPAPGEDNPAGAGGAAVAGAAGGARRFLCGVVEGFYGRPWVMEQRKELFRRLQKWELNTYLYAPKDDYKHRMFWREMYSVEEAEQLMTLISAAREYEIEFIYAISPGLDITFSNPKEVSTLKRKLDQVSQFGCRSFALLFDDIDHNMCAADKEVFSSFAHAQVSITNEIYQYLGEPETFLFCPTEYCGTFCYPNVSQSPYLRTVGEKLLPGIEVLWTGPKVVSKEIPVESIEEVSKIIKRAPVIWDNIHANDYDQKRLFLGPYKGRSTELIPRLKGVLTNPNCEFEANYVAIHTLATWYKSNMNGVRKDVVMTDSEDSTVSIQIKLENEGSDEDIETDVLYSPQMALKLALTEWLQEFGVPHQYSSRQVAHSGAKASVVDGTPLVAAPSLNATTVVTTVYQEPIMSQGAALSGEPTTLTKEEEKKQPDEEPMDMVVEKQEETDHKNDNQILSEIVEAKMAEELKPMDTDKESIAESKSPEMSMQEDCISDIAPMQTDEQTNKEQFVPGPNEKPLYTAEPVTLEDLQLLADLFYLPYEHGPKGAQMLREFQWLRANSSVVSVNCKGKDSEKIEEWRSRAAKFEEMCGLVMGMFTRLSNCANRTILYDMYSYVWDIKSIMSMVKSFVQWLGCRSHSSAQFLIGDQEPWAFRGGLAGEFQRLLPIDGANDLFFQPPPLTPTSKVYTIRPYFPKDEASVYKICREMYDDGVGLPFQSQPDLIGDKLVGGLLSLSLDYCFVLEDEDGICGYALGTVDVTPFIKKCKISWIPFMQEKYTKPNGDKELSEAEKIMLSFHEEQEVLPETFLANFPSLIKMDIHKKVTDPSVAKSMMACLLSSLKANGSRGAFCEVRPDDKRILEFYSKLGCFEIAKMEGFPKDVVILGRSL
Put plainly: OGA Enzyme Inhibition Biochemical Assay. The conditions noted are these: 1 nM OGA, 100 μM 4-MUGlcNAc (Km), pH 6.4, 90 minutes at room temperature, 10-point dose-response from 20 μM. A digest of the protocol: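 Full-length human OGA at 1 nM with 100 μM 4-MUGlcNAc (Km) in McIlvaine buffer pH 6.4 plus 0.01% BSA, 90 min at room temperature, then glycine pH 10 quench. Fluorescence read at Ex 355/Em 460 nm. 10-point, 4-fold dose-response from 20 μM, 4-parameter variable-slope fit.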

Turning to `CC(=O)Nc1ncc(CN2CCCC(Cn3cc(C(C)C)cn3)C2)s1` (stereo not drawn) [Example 4-7, N-(5-((3-((4-isopropyl-1H-pyrazol-1-yl)methyl)piperidin-1-yl)methyl)thiazol-2-yl)acetamide], the IC50 worked out at 380 nM.

For the compound `CC(=O)Nc1ncc(CN2CCC[C@H](Cc3ncccn3)C2)s1` [Example 3-7, (R)-N-(5-((3-(pyrimidin-2-ylmethyl)piperidin-1-yl)methyl)thiazol-2-yl)acetamide], the IC50 came out at 2 nM.

For the compound `CCC(=O)Nc1nc(F)c(CN2CCC[C@H](Cc3cc(OC)ncn3)C2)s1` [Example 3-49, (R)-N-(4-fluoro-5-((3-((6-methoxypyrimidin-4-yl)methyl)piperidin-1-yl)methyl)thiazol-2-yl)propionamide], the IC50 was determined as 2.2 nM.

As to `CCc1cc2c(CC3CCCN(Cc4cnc(NC(C)=O)s4)C3)ncnc2s1` (stereo not drawn) [Example 1-41, N-(5-((3-((6-ethylthieno[2,3-d]pyrimidin-4-yl)methyl)piperidin-1-yl)methyl)thiazol-2-yl)acetamide], the IC50 is 1 nM.

Take `COc1cnc(CC2CCCN(Cc3cnc(NC(C)=O)s3)C2)nc1` (stereo not drawn) [Example 2-4, N-(5-((3-((5-methoxypyrimidin-2-yl)methyl)piperidin-1-yl)methyl)thiazol-2-yl)acetamide]: the IC50 is 2 nM.

With `CC(=O)Nc1ncc(CN2CCCC(Cc3ccc(F)cc3)C2)s1` (stereo not drawn) [Example 1-1, N-(5-((3-(4-fluorobenzyl)piperidin-1-yl)methyl)thiazol-2-yl)acetamide], the IC50 was 60 nM.

Take `CC(=O)Nc1ncc(CN2CCC[C@H]([C@@H](C)c3ncc(F)cn3)C2)s1` (single isomer, unassigned) [Example 2-31]: the IC50 worked out at 4 nM.

With `CC(=O)Nc1nc(F)c(CN2CCC[C@H](Cc3ccc(C)nc3)C2)s1` [Example 3-20, (R)-N-(4-fluoro-5-((3-((6-methylpyridin-3-yl)methyl)piperidin-1-yl)methyl)thiazol-2-yl)acetamide], the IC50 was below 1 nM.

With `CC(=O)Nc1ncc(CN2CCC[C@H](Cc3ncc(F)c(C)n3)C2)s1` [Example 2-7, (R)-N-(5-((3-((5-fluoro-4-methylpyrimidin-2-yl)methyl)piperidin-1-yl)methyl)thiazol-2-yl)acetamide], the half-maximal inhibitory concentration (IC50) worked out at 3 nM.
